Usually IC50 stands for the concentration needed to halve the response being measured. A higher IC50 goes with lower potency.

The values below come from ChEMBL document CHEMBL1132666, “Significant compensatory role of position Y-2 conferring high affinity to non-phosphorylated inhibitors of Grb2-SH2 domain” (Bioorg Med Chem Lett, 1999).

The target in this assay is Growth factor receptor-bound protein 2 (Homo sapiens, UniProt P62993). Description: Inhibitory activity against Growth factor receptor bound protein 2.
Growth factor receptor-bound protein 2, sequence (P62993 whole entry): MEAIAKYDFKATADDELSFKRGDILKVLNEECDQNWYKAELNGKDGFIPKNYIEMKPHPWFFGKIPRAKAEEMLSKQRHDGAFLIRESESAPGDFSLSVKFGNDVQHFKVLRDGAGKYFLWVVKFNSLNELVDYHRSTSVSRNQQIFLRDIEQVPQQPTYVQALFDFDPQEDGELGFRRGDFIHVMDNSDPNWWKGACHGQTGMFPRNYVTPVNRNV
As to `CSCC[C@H]1NC(=O)CNC(=O)[C@@H](C(C)C)NC(=O)[C@@H](CC(N)=O)NC(=O)[C@@H](CCC(=O)O)NC(=O)[C@@H](Cc2ccc(O)cc2)NC(=O)[C@@H](CC(C)C)NC(=O)[C@@H](CCC(=O)O)NC(=O)CSC[C@H](C(N)=O)NC(=O)[C@@H](Cc2ccc(O)cc2)NC1=O`, the IC50 was 20 µM.

The compound `CSCC[C@H]1NC(=O)CNC(=O)[C@@H](C(C)C)NC(=O)[C@@H](CC(N)=O)NC(=O)[C@@H](CCC(=O)O)NC(=O)[C@@H](Cc2ccc(O)cc2)NC(=O)[C@@H](CC(C)C)NC(=O)[C@@H](C)NC(=O)CSC[C@H](C(N)=O)NC(=O)[C@@H](Cc2ccc(O)cc2)NC1=O` had a half-maximal inhibitory concentration (IC50) of 100 µM.

For the compound `CSCC[C@H]1NC(=O)CNC(=O)[C@@H](C(C)C)NC(=O)[C@@H](CC(N)=O)NC(=O)[C@@H](CCC(=O)O)NC(=O)[C@@H](Cc2ccc(O)cc2)NC(=O)[C@@H](CC(C)C)NC(=O)[C@@H](C)NC(=O)CSC[C@H](C(N)=O)NC(=O)[C@@H](Cc2ccc(OP(=O)(O)O)cc2)NC1=O`, the concentration for half-maximal inhibition (IC50) came out at 0.023 µM.

Turning to `CSCC[C@H]1NC(=O)CNC(=O)[C@@H](C(C)C)NC(=O)[C@@H](CC(N)=O)NC(=O)[C@@H](CCC(=O)O)NC(=O)[C@@H](Cc2ccc(O)cc2)NC(=O)[C@@H](CC(C)C)NC(=O)[C@@H](CCC(=O)O)NC(=O)CSC[C@H](C(N)=O)NC(=O)[C@@H](Cc2ccc(OP(=O)(O)O)cc2)NC1=O`, it took 0.13 µM to reach half-maximal inhibition (IC50).

Turning to `CSCC[C@H]1NC(=O)CNC(=O)[C@@H](C(C)C)NC(=O)[C@@H](CC(N)=O)NC(=O)[C@@H](CCC(=O)O)NC(=O)[C@@H](Cc2ccc(O)cc2)NC(=O)[C@@H](CC(C)C)NC(=O)[C@@H](CC(C(=O)O)C(=O)O)NC(=O)CSC[C@H](C(N)=O)NC(=O)[C@@H](Cc2ccc(O)cc2)NC1=O`, inhibition was half-maximal at 0.64 µM (IC50).

`CSCC[C@H]1NC(=O)CNC(=O)[C@@H](C(C)C)NC(=O)[C@@H](CC(N)=O)NC(=O)[C@@H](CCC(=O)O)NC(=O)[C@@H](Cc2ccc(O)cc2)NC(=O)[C@@H](CC(C)C)NC(=O)[C@@H](CCCC(=O)O)NC(=O)CSC[C@H](C(N)=O)NC(=O)[C@@H](Cc2ccc(O)cc2)NC1=O` gave a 50% inhibitory concentration (IC50) of 3.45 µM.

Compound `CSCC[C@H]1NC(=O)CNC(=O)[C@@H](C(C)C)NC(=O)[C@@H](CC(N)=O)NC(=O)[C@@H](CCC(=O)O)NC(=O)[C@@H](Cc2ccc(O)cc2)NC(=O)[C@@H](CC(C)C)NC(=O)[C@@H](Cc2ccc(OP(=O)(O)O)cc2)NC(=O)CSC[C@H](C(N)=O)NC(=O)[C@@H](Cc2ccc(O)cc2)NC1=O` returned an IC50 of 27.5 µM.

`CSCC[C@H]1NC(=O)CNC(=O)[C@@H](C(C)C)NC(=O)[C@@H](CC(N)=O)NC(=O)[C@@H](CCC(=O)O)NC(=O)[C@@H](Cc2ccc(O)cc2)NC(=O)[C@@H](CC(C)C)NC(=O)[C@@H](Cc2ccc(OC(C(=O)O)C(=O)O)cc2)NC(=O)CSC[C@H](C(N)=O)NC(=O)[C@@H](Cc2ccc(O)cc2)NC1=O` showed a 50% inhibitory concentration (IC50) of 64.5 µM.
